Our source for the IC50 values is patent publication US8592469B2, “Diazonamide analogs” (Joyant Pharmaceuticals, Inc., priority 2012, dated 2013).

In one test the test system is A2058 cells. Put plainly: Cell viability assay (Cell-Titer-Glo) in A2058 cells. It is filed as cell-based. As to conditions: Homo sapiens, 48 hour treatment, test compounds 1 nM to 1 μM. On the procedure: (§1) Cell viability assays were run using standard protocols known to those of skill in art. Cells were plated in 96 well plates at the density of 3,000-10,000 cells per well. Twenty four hours later, cells were treated with increasing concentration of test compounds (1 nM to 1 μM). After another 48 hour, cell survival was measured using Cell-Titer-Glo® reagent (Promega) following the protocol provided by the manufacture. The IC50 value was determined as the concentration of test compound that kills 50% of the cell population.
(§2) Cell viability data generated according to the protocol described above was generated for representative compounds in A2058 and U937 cells. The compounds shown in Table 1 were prepared by the methods described herein for structurally similar compounds. The reference compound was a synthetic diazonamide analog having the structure: […]

A further test deals with U937 cells. Put plainly: Cell viability assay (Cell-Titer-Glo) in U937 cells. In kind it is cell-based. To be noted: Homo sapiens, U-937, 48 hour treatment, test compounds 1 nM to 1 μM. On the procedure:
as §1, §2

Structures are written as SMILES.

Take `CC(C)[C@H](O)C(=O)N[C@H]1CCc2ccc3c(c2)[C@]2(C4=C(c5nc(CO)co5)N=C(O4)[C@H](C(C)(C)C)NC1=O)c1ccccc1NC2O3` (stereo partly drawn) [Compound 75]: the concentration for half-maximal inhibition (IC50) (in general, the concentration at which inhibition is half-maximal) in the test on A2058 cells was determined as 1.89 nM; in the test on U937 cells, 6.55 nM.

As for `COC(=O)c1coc(-c2nc3oc2C24c5cc(ccc5O[C@@H]2N(S(C)(=O)=O)c2ccccc24)C[C@H](NC(=O)[C@@H](O)C(C)C)C(=O)N[C@H]3C(C)C)n1` (stereo partly drawn) [Compound 76], the IC50 in the test on A2058 cells is above 1000 nM; in the test with U937 cells, 614 nM.

Turning to `CC(C)[C@H](O)C(=O)N[C@H]1Cc2ccc3c(c2)C2(C4=C(c5nc(CO)co5)N=C(O4)[C@H](C(C)C)NC1=O)c1ccccc1N(S(C)(=O)=O)[C@H]2O3` (stereo partly drawn) [Compound 77], the 50% inhibitory concentration (IC50) in the test on A2058 cells was above 1000 nM; in the test with U937 cells, 777 nM.

For `COC(=O)c1coc(-c2nc3oc2C24c5cc(ccc5O[C@@H]2N(C)c2ccccc24)C[C@H](NC(=O)[C@@H](O)C(C)C)C(=O)N[C@H]3C(C)C)n1` (stereo partly drawn) [Compound 78], the IC50 in the test with A2058 cells worked out at 114 nM; in the test with U937 cells, 17.4 nM.

In the case of `COC(=O)c1coc(-c2nc3oc2C24c5cc(ccc5O[C@@H]2Nc2c(-c5ccccc5)cccc24)C[C@H](NC(=O)[C@@H](O)C(C)C)C(=O)N[C@H]3C(C)C)n1` (stereo partly drawn) [Compound 79], the IC50 is 270 nM in the test with A2058 cells and 210 nM in the test with U937 cells.

For the compound `COC(=O)c1coc(-c2nc3oc2C24c5cc(F)ccc5N[C@H]2Oc2ccc(cc24)C[C@H](NC(=O)[C@@H](O)C(C)C)C(=O)N[C@H]3C(C)C)n1` (stereo partly drawn) [Compound 80], the figures for the concentration for half-maximal inhibition (IC50) with A2058 cells and with U937 cells were 13.6 nM and 4.07 nM, respectively.

In the case of `CC(C)[C@H](O)C(=O)N[C@H]1Cc2ccc3c(c2)[C@]2(C4=C(c5nc(CO)co5)N=C(O4)[C@H](C(C)C)NC1=O)c1cc(F)ccc1N[C@@H]2O3` [Compound 81], the IC50 with A2058 cells turned out to be 55.1 nM; with U937 cells, 32.8 nM.

For `COC(=O)c1coc(-c2nc3oc2C24c5ccc(F)cc5N[C@H]2Oc2ccc(cc24)C[C@H](NC(=O)[C@@H](O)C(C)C)C(=O)N[C@H]3C(C)C)n1` (stereo partly drawn) [Compound 82], the figures for the IC50 with A2058 cells and in the test with U937 cells were 40.9 nM and 3.4 nM, respectively.

On to `CC(C)[C@H](O)C(=O)N[C@H]1Cc2ccc3c(c2)C2(C4=C(c5nc(CO)co5)N=C(O4)[C@H](C(C)C)NC1=O)c1ccc(F)cc1N[C@H]2O3` (stereo partly drawn) [Compound 83], for which the IC50 worked out at 184 nM with A2058 cells and 60.6 nM in the test with U937 cells.

On to `COC(=O)c1coc(-c2nc3oc2C24c5cc(Cl)ccc5N[C@H]2Oc2ccc(cc24)C[C@H](NC(=O)[C@@H](O)C(C)C)C(=O)N[C@H]3C(C)(C)C)n1` (stereo partly drawn) [Compound 84], for which the IC50 with A2058 cells was found to be 19.5 nM; in the test with U937 cells, 10.1 nM.

Regarding `CC(C)[C@H](O)C(=O)N[C@H]1Cc2ccc3c(c2)[C@]2(C4=C(c5nc(CO)co5)N=C(O4)[C@H](C(C)(C)C)NC1=O)c1cc(F)ccc1N[C@@H]2O3` [Compound 85], the IC50 in the test with A2058 cells was determined as 0.47 nM; in the test on U937 cells, 0.74 nM.

For the compound `CC(C)[C@H](O)C(=O)N[C@H]1Cc2ccc3c(c2)[C@]2(C4=C(c5nc(C#N)co5)N=C(O4)[C@H](C(C)C)NC1=O)c1cc(F)ccc1N[C@@H]2O3` [Compound 86], the results for the IC50 in the test on A2058 cells and in the test with U937 cells were 0.56 nM and 21.8 nM, respectively.

Turning to `CC(C)[C@H](O)C(=O)N[C@H]1Cc2ccc3c(c2)[C@]2(C4=C(c5nc(C#N)co5)N=C(O4)[C@H](C(C)(C)C)NC1=O)c1cc(F)ccc1N[C@@H]2O3` [Compound 87], the IC50 in the test with A2058 cells is below 0.3 nM; in the test on U937 cells, 1.9 nM.

In the case of `COC(=O)c1coc(-c2nc3oc2[C@@]24c5ccccc5NC2Oc2ccc(cc24)C[C@H](N(C)C(=O)[C@@H](O)C(C)C)C(=O)N[C@H]3C(C)C)n1` (stereo partly drawn) [Compound 88], the IC50 is 0.8 nM in the test on A2058 cells and 0.6 nM in the test with U937 cells.

`CC(C)[C@H](O)C(=O)N(C)[C@H]1Cc2ccc3c(c2)[C@]2(C4=C(c5nc(CO)co5)N=C(O4)[C@H](C(C)C)NC1=O)c1ccccc1NC2O3` (stereo partly drawn) [Compound 89]: the results for the IC50 with A2058 cells and in the test on U937 cells were 3 nM and 1 nM, respectively.

In the case of `COC(=O)c1coc(-c2nc3oc2[C@@]24c5ccccc5NC2Oc2ccc(cc24)C[C@H](N(C)C(=O)[C@@H](O)C(C)C)C(=O)N[C@H]3C(C)(C)C)n1` (stereo partly drawn) [Compound 90], the IC50 stood at 10.4 nM in the test with A2058 cells and 17.1 nM in the test with U937 cells.

Regarding `CC(C)[C@H](O)C(=O)N(C)[C@H]1Cc2ccc3c(c2)[C@]2(C4=C(c5nc(C#N)co5)N=C(O4)[C@H](C(C)C)NC1=O)c1ccccc1NC2O3` (stereo partly drawn) [Compound 91], the IC50 in the test on A2058 cells stood at 0.59 nM; in the test on U937 cells, 1.97 nM.

In the case of `COC(=O)c1coc(-c2nc3oc2[C@@]24c5ccccc5NC2Oc2ccc(cc24)C[C@H](NC(=O)[C@@H](O)C(C)C)C(=O)N(C)[C@H]3C(C)C)n1` (stereo partly drawn) [Compound 92], the half-inhibitory concentration (IC50) with A2058 cells came out at 113 nM; with U937 cells it was 69.9 nM.

In the case of `COC(=O)c1coc(-c2nc3oc2[C@@]24c5ccccc5NC2Oc2ccc(cc24)C[C@H](N(C)C(=O)[C@@H](O)C(C)C)C(=O)N(C)[C@H]3C(C)C)n1` (stereo partly drawn) [Compound 93], the half-maximal inhibitory concentration (IC50) stood at 35.8 nM in the test on A2058 cells and 18.6 nM with U937 cells.

`COC(=O)c1coc(-c2nc3oc2[C@]24c5ccccc5NC2Oc2ccc(cc24)C[C@H](NC(=O)[C@@H](O)C(C)C)C(=O)N(C)[C@H]3C(C)C)n1` (stereo partly drawn) [Compound 94]: the IC50 in the test on A2058 cells and in the test with U937 cells was above 300 nM in each case.

As for `CC(C)[C@H](O)C(=O)N[C@H]1Cc2ccc3c(c2)C2(C4=C(c5nc6cnccc6o5)N=C(O4)[C@H](C(C)C)NC1=O)c1ccccc1N[C@H]2O3` (stereo partly drawn) [Compound 95], the half-inhibitory concentration (IC50) in the test with A2058 cells worked out at 142 nM; with U937 cells, 65 nM.

With `CC(C)[C@H](O)C(=O)N[C@H]1Cc2ccc3c(c2)[C@]2(C4=C(c5ccccc5)N=C(O4)[C@H](C(C)C)NC1=O)c1ccccc1NC2O3` (stereo partly drawn) [Compound 96], the concentration for half-maximal inhibition (IC50) with A2058 cells and with U937 cells was above 1000 nM each time.

`COC(=O)c1csc(-c2nc3oc2C24c5ccccc5N[C@H]2Oc2ccc(cc24)C[C@H](NC(=O)[C@@H](O)C(C)C)C(=O)N[C@H]3C(C)C)n1` (stereo partly drawn) [Compound 97]: the figures for the IC50 in the test on A2058 cells and in the test with U937 cells were 225 nM and 59.5 nM, respectively.

On to `CC(C)[C@H](O)C(=O)N[C@H]1Cc2ccc3c(c2)C2(C4=C(c5nc(CO)cs5)N=C(O4)[C@H](C(C)C)NC1=O)c1ccccc1N[C@H]2O3` (stereo partly drawn) [Compound 98], for which the IC50 turned out to be 284 nM with A2058 cells and 231 nM in the test on U937 cells.

As to `COC(=O)c1coc(-c2nc3oc2C24c5ccccc5N[C@H]2Oc2ccc(cc24)C[C@H](NC(=O)[C@@H](O)C(C)C)C(=O)N[C@@H]3C(C)C)n1` (stereo partly drawn) [Compound 99], the half-inhibitory concentration (IC50) in the test on A2058 cells and with U937 cells was above 1000 nM in each case.

`CC(C)[C@H](O)C(=O)N[C@H]1Cc2ccc3c(c2)[C@]2(C4=C(c5nc(CC(F)(F)F)co5)N=C(O4)[C@H](C(C)C)NC1=O)c1ccccc1NC2O3` (stereo partly drawn) [Compound 100]: the 50% inhibitory concentration (IC50) in the test with A2058 cells came to 465 nM; in the test with U937 cells, 220 nM.

Take `CC(C)c1coc(-c2nc3oc2C24c5ccccc5N[C@H]2Oc2ccc(cc24)C[C@H](NC(=O)[C@@H](O)C(C)C)C(=O)N[C@H]3C(C)C)n1` (stereo partly drawn) [Compound 101]: the figures for the IC50 in the test on A2058 cells and in the test with U937 cells were 684 nM and 500 nM, respectively.

With `COC(=O)c1coc(-c2nc3oc2[C@]24c5ccccc5NC2Oc2ccc(cc24)C[C@H](NC(=O)[C@@H](O)C(C)C)C(=O)N[C@H]3C(C)(C)C)n1` (stereo partly drawn) [Compound 103], the IC50 in the test with A2058 cells is 221 nM; with U937 cells it was 69 nM.

Regarding `COC(=O)c1coc(-c2nc3oc2CC/C=C/C[C@H](NC(=O)[C@@H](O)C(C)C)C(=O)N[C@H]3C(C)C)n1` [Compound 104], the IC50 in the test with A2058 cells and with U937 cells was above 300 nM throughout.

As to `COC(=O)c1coc(-c2nc3oc2CCCCC[C@H](NC(=O)[C@@H](O)C(C)C)C(=O)N[C@H]3C(C)C)n1` [Compound 105], the IC50 in the test with A2058 cells and with U937 cells was above 300 nM in each case.
